Assay results reported in article PMC6269071, “New Quinoxaline Derivatives as Potential MT1 and MT2 Receptor Ligands” (Molecules, 2012).

How the values were obtained:
[1] = molecular target: T1, human melatonin MT2 receptor (Homo sapiens, UniProt P49286); assay: 2-[125I]Iodomelatonin competitive binding, MT2; settings: for Ki: 2-[125I]Iodomelatonin radioligand, membranes of HEK or CHO cells, mean of at least three experiments, read-out: MT2 Ki (µM) ± SEM
T1 construct: expressed in transfected cells; host or cells: HEK or CHO cells, stably transfected; membrane preparations
T1 sequence (P49286 1-362): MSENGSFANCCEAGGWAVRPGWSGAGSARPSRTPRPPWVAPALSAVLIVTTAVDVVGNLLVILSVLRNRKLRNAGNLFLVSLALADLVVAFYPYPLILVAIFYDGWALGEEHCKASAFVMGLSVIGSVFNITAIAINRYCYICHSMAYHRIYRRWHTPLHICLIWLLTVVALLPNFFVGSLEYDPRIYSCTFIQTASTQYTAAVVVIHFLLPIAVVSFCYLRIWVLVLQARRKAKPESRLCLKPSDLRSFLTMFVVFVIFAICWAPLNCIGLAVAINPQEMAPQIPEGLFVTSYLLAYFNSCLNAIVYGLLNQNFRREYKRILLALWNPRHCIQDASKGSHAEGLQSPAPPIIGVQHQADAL
Description: (§1) The binding affinity of the newly synthesized quinoxalines for MT1 and MT2 receptors was tested through competitive binding experiments using 2-[^125I]Iodomelatonin as radioligand.
(§2) Grown at confluence at 37 °C ([…]/5% CO2), they were harvested in PBS containing EDTA 2 mM and centrifuged at 1,000 g for 5 min (4 °C). The resulting pellet was suspended in Tris 5 mM (pH 7.5), containing EDTA 2 mM and homogenized using a Kinematica polytron. The homogenate was then centrifuged (95,000 g, 30 min, 4 °C) and the resulting pellet suspended in 75 mM Tris (pH 7.5), 12.5 mM MgCl2 and 2 mM EDTA. Aliquots of membrane preparations were stored at −80 °C until use.
(§3) 2-[^125I]Iodomelatonin binding assay conditions are essentially as previously described. Briefly, binding is initiated by the addition of membrane preparations from stable transfected HEK or CHO cells diluted in binding buffer (50 mM Tris-HCl buffer, pH 7.4, containing 5 mM MgCl2) to 2-[^125I]Iodomelatonin (25 or 200 pM for MT1 and MT2 receptors, respectively, expressed in HEK cells or 20 pM for MT1 and MT2 receptors expressed in CHO cells) and the tested drug. […] After 120 min of incubation at 37 °C, the reaction was stopped by rapid filtration through GF/B filters presoaked in 0.5% (v/v) polyethylenimine. Filters were washed three times with 1 mL of ice-cold 50 mM Tris-HCl buffer, pH 7.4. Data from dose-response curves (seven concentrations in duplicate) were analyzed using the program PRISM (Graph Pad Software Inc., San Diego, CA, USA) to yield IC50 (inhibitory concentration 50). Results were expressed as Ki using the Cheng and Prusoff equation: Ki = IC50/[1 + (L/KD)], where [L] is the concentration of radioligand used in the assay and KD, the dissociation constant of the radioligand characterizing the membrane preparation.

[2] = molecular target: T2, human melatonin MT1 receptor (Homo sapiens, UniProt P48039); assay: 2-[125I]Iodomelatonin competitive binding, MT1; settings: 2-[125I]Iodomelatonin radioligand; membranes of HEK or CHO cells; mean of at least three experiments; read-out: MT1 Ki (µM) ± SEM
T2 construct: expressed in transfected cells; host or cells: HEK or CHO cells, stably transfected; membrane preparations
Description: as §1, §2, §3

[3] = molecular target: T3, MT2 receptor (CHO-MT2 membranes) (Homo sapiens, UniProt P49286); assay: [35S]GTPγS binding assay, MT2; format: biochemical; settings: for functional profile at MT2 / EC50: [35S]GTPγS binding; for EC50: CHO membranes, read-out: MT2 EC50 ± SEM
T3 construct: expressed in transfected cells; host or cells: CHO cells, transfected; membranes
T3 sequence (P49286 1-362): T1 sequence (P49286 1-362)
Description: as §2
[^35S]GTPγS binding assay was performed according to published methodology. Briefly, membranes from transfected CHO cells expressing MT1 and MT2 receptor subtypes and compounds were diluted in binding buffer (20 mM HEPES, pH 7.4, 100 mM NaCl, 3 μM GDP, 3 mM MgCl2, and 20 μg/mL saponin). Incubation was started by the addition of 0.2 nM [^35S]GTPγS to membranes (20 μg/mL) and drugs, and further followed for 1h at room temperature.

T2 sequence (P48039 whole entry): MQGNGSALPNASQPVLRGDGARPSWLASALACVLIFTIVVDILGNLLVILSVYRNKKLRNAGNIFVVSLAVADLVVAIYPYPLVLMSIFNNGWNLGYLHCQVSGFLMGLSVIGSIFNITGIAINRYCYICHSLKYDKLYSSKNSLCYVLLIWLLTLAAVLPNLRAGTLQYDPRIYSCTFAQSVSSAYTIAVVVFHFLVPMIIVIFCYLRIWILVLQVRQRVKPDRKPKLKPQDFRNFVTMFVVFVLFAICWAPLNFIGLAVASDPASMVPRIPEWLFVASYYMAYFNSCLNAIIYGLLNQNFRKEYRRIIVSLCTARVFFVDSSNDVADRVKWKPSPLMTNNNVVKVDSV

Compound	Ki [1]	Ki [2]	MT2/MT1 selectivity ratio ([1]; ratio of binding affinities MT1 vs MT2)	functional profile at MT2 [3]	EC50 [3]	Emax ([3]; read-out: MT2 Emax ± SEM (%))
COc1nc2ccccc2nc1CNC(C)=O [Compound 3a, N-(3-Methoxyquinoxalin-2-ylmethyl)-acetamide]	0.88 ± 0.3 µM	2.98 ± 0.36 µM				
CCC(=O)NCc1nc2ccccc2nc1OC [Compound 3b, N-(3-Methoxyquinoxalin-2-ylmethyl)-propionamide]	0.66 ± 0.01 µM	2.6 ± 0.23 µM				
CCCC(=O)NCc1nc2ccccc2nc1OC [Compound 3c, N-(3-Methoxyquinoxalin-2-ylmethyl)-butyramide]	1.1 ± 0.03 µM	0.75 ± 0.36 µM				
COc1nc2ccccc2nc1CNC(=O)C(C)C [Compound 3d, N-(3-Methoxyquinoxalin-2-ylmethyl)-isobutyramide]	0.47 ± 0.02 µM	1.23 ± 0.32 µM				
COc1nc2ccccc2nc1CNC(=O)c1ccccc1 [Compound 3e, N-(3-Methoxy-quinoxalin-2-ylmethyl)-benzamide]	> 1000 µM	> 1000 µM				
CCNC(=O)NCc1nc2ccccc2nc1OC [Compound 3f, Ethyl-3-(3-methoxyquinoxalin-2-ylmethyl)urea]	0.4 ± 0.13 µM	> 1000 µM				
CCCNC(=O)NCc1nc2ccccc2nc1OC [Compound 3g, 1-(3-Methoxyquinoxalin-2-ylmethyl)-3-propylurea]	0.44 µM	> 1000 µM				
COc1nc2ccccc2nc1CNC(=O)NC(C)C [Compound 3h, 1-Isopropyl-3-(3-methoxyquinoxalin-2-ylmethyl)urea]	> 1000 µM	> 1000 µM				
COc1nc2ccccc2nc1CNC(=O)Nc1ccccc1 [Compound 3i, 1-(3-Methoxyquinoxalin-2-ylmethyl)-3-phenyl-urea]	> 1000 µM	> 1000 µM				

Results, then the compound that gave them:

Ki [1]	Ki [2]	MT2/MT1 selectivity ratio ([1]; ratio of binding affinities MT1 vs MT2)	functional profile at MT2 [3]	EC50 [3]	Emax ([3]; read-out: MT2 Emax ± SEM (%))	Compound
0.08 µM	20 ± 1.82 µM	250	antagonist	> 10 µM		COc1nc2ccc(NC(C)=O)cc2nc1OC [Compound 6a, N-(2,3-Dimethoxyquinoxalin-6-yl)acetamide]
4.36 ± 1.22 µM	17.6 ± 7.81 µM					CCC(=O)Nc1ccc2nc(OC)c(OC)nc2c1 [Compound 6b, N-(2,3-Dimethoxyquinoxalin-6-yl)propionamide]
1.35 ± 0.31 µM	11.5 ± 2.8 µM		full agonist	1.3 ± 0.26 µM	84 ± 9.5%	CCCC(=O)Nc1ccc2nc(OC)c(OC)nc2c1 [Compound 6c, N-(2,3-Dimethoxyquinoxalin-6-yl)butyramide]
10.5 ± 2.96 µM	3.4 ± 1.37 µM					COc1nc2ccc(NC(=O)C(C)C)cc2nc1OC [Compound 6d, N-(2,3-Dimethoxyquinoxalin-6-yl)isobutyramide]
> 1000 µM	> 1000 µM					COc1nc2ccc(NC(=O)c3ccccc3)cc2nc1OC [Compound 6e, N-(2,3-Dimethoxyquinoxalin-6-yl)benzamide]
28.8 µM	3.41 ± 1.89 µM					CCNC(=O)Nc1ccc2nc(OC)c(OC)nc2c1 [Compound 6f, 1-(2,3-Dimethoxyquinoxalin-6-yl)-3-ethylurea]
0.489 ± 0.07 µM	1.63 ± 0.44 µM					CCCNC(=O)Nc1ccc2nc(OC)c(OC)nc2c1 [Compound 6g, 1-(2,3-Dimethoxyquinoxalin-6-yl)-3-propylurea]
> 1000 µM	> 1000 µM					COc1nc2ccc(NC(=O)NC(C)C)cc2nc1OC [Compound 6h, 1-(2,3-Dimethoxyquinoxalin-6-yl)-3-isopropylurea]
> 1000 µM	> 1000 µM					COc1nc2ccc(NC(=O)Nc3ccccc3)cc2nc1OC [Compound 6i, 1-(2,3-Dimethoxyquinoxalin-6-yl)-3-phenylurea]
> 1000 µM	> 1000 µM					COc1ccc2ncc(CNC(C)=O)nc2c1 [Compound 10a, N-[(7-Methoxyquinoxalin-2-yl)methyl]acetamide]
0.34 ± 0.15 µM	> 1000 µM					CCC(=O)NCc1cnc2ccc(OC)cc2n1 [Compound 10b, N-[(7-Methoxyquinoxalin-2-yl)methyl]propionamide]
0.1 ± 0.01 µM	0.21 ± 0.11 µM					CCCC(=O)NCc1cnc2ccc(OC)cc2n1 [Compound 10c, N-[(7-Methoxyquinoxalin-2-yl)methyl]butyramide]
0.16 µM	0.32 ± 0.04 µM					COc1ccc2ncc(CNC(=O)C(C)C)nc2c1 [Compound 10d, N-[(7-Methoxyquinoxalin-2-yl)methyl]isobutyramide]
> 1000 µM	> 1000 µM					COc1ccc2ncc(CNC(=O)c3ccccc3)nc2c1 [Compound 10e, N-[(7-Methoxyquinoxalin-2-yl)methyl]benzamide]
